Assay results published in patent US4997757A, “Process for detecting potential carcinogens” (GeneBioMed, Inc., priority 1988, dated 1991).

Experiments:
strain RS112 [1] = experiment: G2 arrest of yeast cells by MBC; format: cell-based, Saccharomyces cerevisiae; details: 100 μg/ml, 5 to 7 hours at 30° C.
Experimental: (§1) The applicant has reproduced the method published in the aforementioned paper by Fabre et al. Mol. Gen. Genet. 195:139143 (1984) to obtain mostly G1 (stationary) and G2 arrested cells by using Methyl-Benzimidazole-Carbamate (MBC) to arrest the cells in G2 : Strain used for the experiment was RS112, the genotype of which is given below: [drawing 1] Media were the same as described at another part of the specification. Stationary cells were obtained by incubation of cells in liquid YPD at 30° C. for 48 hours. Stationary cells were more than 85% in G1. To obtain cells arrested in G2 the cells were incubated in YPD containing the fungicide methyl benzimidazol-2-yl carbamate (MBC) (stock solution 10 mg/ml) at a concentration of 100 μg/ml at a cell density of 10^7 cells/ml for 5 to 7 hours at 30° C. […] Log phase cells were obtained by incubation of the cells in YEPD for the same time period without MBC. Log phase cultures contained cells in all stages. The cells were irradiated with UV light at a dose of 0-40 J/m2 and cells were held at G1, log or G2 for another two hours to allow repair of the damage in the respective stage. The cells were than collected by centrifugation and washed twice, plated for survivals onto SC medium, for determination of interchromosomal conversion events onto SC-Ade and for determination of SCC onto SC-His.

strain RS112 [2] = experiment: plating efficiency after MBC treatment; format: cell-based, Saccharomyces cerevisiae; details: 100 μg/ml, 5 to 7 hours at 30° C.
Experimental: as §1

Salmonella typhimurium = details: cited from earlier work
[3] = tested on: strain RS112 (heteroalleles ade2-40 and ade2-101); experiment: ICC (interchromosomal gene conversion) between heteroalleles ade2-40 and ade2-101; format: cell-based, Saccharomyces cerevisiae; details: strain RS112
Experimental: (§2) It is preferred that, when the cells are to be grown in the presence of the agent, logarithmic phase cultures are used. In one embodiment, for each of the test strains, a cell suspension of 2×10^6 cells per milliliter-LEU medium be prepared from a logarithmic phase culture pregrown in liquid-LEU medium. The whole mix is aliquoted into portions of 5 milliliter into disposable plastic tubes in the presence of the agent to be tested, the tubes are sealed and shaken continuously for 17 hours.
(§3) The strain used in this example was RS112 which was obtained by crossing strain RSY6 with strain 428. RSY6 contains the SCC system and was deposited at November 30 under "ATCC designation number 20871" with the American Type Culture Collection of 12301 Parklawn Drive, Rockville, Md. 20852. Strain 428 was obtained from M. Snyder, Department of Biology, at Yale University, New Haven, Conn. and was used because it contains the mutation his3Δ-200, the construction of which has been described in an article by Struhl entitled "Naturally occurring poly(dA-dT) sequences are upstream promoter elements of constitutive transcription in yeast, published in Proc. Natl. Acad. Sci. USA 82 on pages 8419-8423. Strains containing the his3Δ-200 mutation are readily available to those skilled in the art.
Strain RS112 has the following genotype: [drawing 2]
Values for the intrachromosomal recombination system between deletion alleles of his3 are designated as SCC. Also strain RS112 contained heteroallelic mutations in ade2 so that the frequency of interchromosomal gene conversion (ICC) between heteroalleles in a diploid was determined. ICC was measured as recombination between the heteroalleles ade2-40 and ade2-101 by selecting for ADE+. Values obtained are given to compare the performance of the two systems.
The frequencies for ICC are given in events per 10^5 survivals, and the frequencies for SCC are given in events per 10^4 survivals. It has to be noted that for sister chromatid recombination in mammalian cells the increase even with potent carcinogens is usually less than ten fold and also slight increases have been taken as positive results. For instance an increase in frequency of two fold has been taken to be significant; see a publication by Rudiger et al. entitled "Metabolites of diethylstilbestrol induce sister chromatid exchange in human cultured fibroblasts." published in Nature 281:392-394).

rat liver = details: in vivo; cited from earlier work
[4] = tested on: strain RS112 (his3 deletion alleles); experiment: SCC (sister chromatid conversion) intrachromosomal recombination system, deletion alleles of his3; format: cell-based, Saccharomyces cerevisiae; details: strain RS112
Excerpt: In the most preferred embodiment it is preferable to grow the cells in a medium which selects against the occurrence of the genome rearrangement to keep the control values as low as possible. In the embodiment described in FIG. 1 it is shown that the LEU2 gene of construct 10 is lost after the genome rearrangement which results in construct 22. Therefore cells containing construct 10, before the rearrangement are able to grow in the absence of leucine in the medium, but cells containing construct 22, after the genome rearrangement are not able to grow in the absence of leucine. After the genome rearrangement cells containing construct 22 are able to grow in the absence of histidine in the medium, but cells containing construct 10 before the genome rearrangement are not able to grow in the absence of histidine. Therefore the selection scheme which was used for Example 3 involves growth of the yeast culture in medium lacking leucine but containing histidine before and during the exposure to the potential carcinogens or other test agents. After the exposure the cells which have undergone genome rearrangement are selected on medium lacking histidine but containing leucine.
as §2
After the yeast cells have been exposed to both the agent to be tested and the selection medium under the conditions of the test and have been incubated for some time period of about more than one day preferably at 30 degrees Celsius or any other temperature which allows growth of the yeast cells used, the number of colonies formed by cells which have undergone genome rearrangement are counted and compared with the number of colonies of yeast cells identical in substantially every respect with the exception of not having been exposed to the suspected carcinogenic agent. The rates of genome rearrangement for both the control and experimental samples are then compared.
Plasmids were constructed as substrates to study intrachromosomal recombination; see an earlier part of the specification and Example 1. The plasmids pRS6 (FIG. 7, construct 108) and pRS11 (FIG. 9, construct 118) both contained an internal fragment of the HIS3 gene as well as one selectable marker (LEU2). pRS11 in addition contained the 2 μm origin of replication to select for the presence of the plasmid after plasmid excision. pRS11FRT-had the FLP recombination site disrupted (see Example 1). Yeast strains RSY6 containing construct 10, RSY11 containing construct 118 and RSY11FRT- (see Example 1) were used. They contained the respective pRS plasmids integrated into the HIS3 gene of strain S35/2-10C giving rise to disruptions of the HIS3 gene construct 10 or analogs to it (FIG. 10). The two resulting his3 deletion alleles (FIG. 10) shared about 400 basepairs of homology and thus could interact with each other by homologous recombination. Reversion of his- to HIS+ occurred at a frequency of about 4×10^-4 in all three strains. All of 100 tested HIS+ revertants of strain RSY6 were leu-. Because of this observation strains used for recombination studies were always pregrown on -LEU medium to prevent growth of HIS+ revertants. Therefore the frequency of HIS+ revertants is a measure of the recombination rate.
The strain used in this example was RS112 which was obtained by crossing strain RSY6 with strain 428. RSY6 contains the SCC system and was deposited at November 30 under "ATCC designation number 20871" with the American Type Culture Collection of 12301 Parklawn Drive, Rockville, Md. 20852. […]

[5] = in vivo; cited from earlier work
rats = details: cited from earlier work
[6] = survival of yeast exposed to agent; format: cell-based, Saccharomyces cerevisiae
Excerpt: It is preferred to conduct a preliminary experiment to determine those concentrations of the agent to be tested which should be evaluated in the main experiment. Yeast cells are exposed to a wide range of concentrations of the agent to be tested to determine its cytotoxicity.
as §2, §3

mammalian cells [7] = details: cited from earlier work
mice = details: cited from earlier work
mammalian cells [8] = details: cited from earlier work; remark: listed apart in the source

COC(=O)Nc1nc2ccccc2[nH]1 [MBC, methyl benzimidazol-2-yl carbamate]
cells showing characteristic G2 arrest (strain RS112 [1]): more than 90% | plating efficiency (strain RS112 [2]): never decreased

C=CCc1ccc2c(c1)OCO2 [Safrole]
Ames Assay result (Salmonella typhimurium): negative | ICC/10^5 cells ([3]; 0.05 %): 1.07 /10^5 cells | ICC/10^5 cells ([3]; 0.1 %): 0.59 /10^5 cells | ICC/10^5 cells ([3]; 0.2 %): 0.82 /10^5 cells | ICC/10^5 cells ([3]; 0.4 %): 1.36 /10^5 cells | rat liver foci assay result (rat liver): negative | SCC/10^4 cells ([4]; 0.05 %): 0.94 /10^4 cells | SCC/10^4 cells ([4]; 0.1 %): 1.22 /10^4 cells | SCC/10^4 cells ([4]; 0.2 %): 2.4 /10^4 cells | SCC/10^4 cells ([4]; 0.4 %): 14.1 /10^4 cells | carcinogenicity [5]: known carcinogens | carcinogenicity (rats): produces liver cancer in mice and rats | viability at 17 h ([6]; yeast strain rs112, 0.05 %): 112% | viability at 17 h ([6]; yeast strain rs112, 0.1 %): 95% | viability at 17 h ([6]; yeast strain rs112, 0.2 %): 76% | viability at 17 h ([6]; yeast strain rs112, 0.4 %): 4.6% | SCE assay result (mammalian cells [7]): negative | carcinogenicity (mice): produces liver cancer in mice and rats | chromosomal aberration assay result (mammalian cells [8]): negative
